Measurements as given in patent publication US20220117938A1, “COMBINATON THERAPY WITH A DON PRODRUG AND AN IMMUNE CHECKPOINT INHIBITOR” (DRACEN PHARMACEUTICALS, INC., priority 2019, published 2022).

Tested on: EL4 tumors
Experiment: Anti-tumor efficacy of Compound 1 with and without anti-PD-1 in the subcutaneous EL4 murine lymphoma model (Example 2C)
Type: in vivo, Mus musculus
Settings: for ILS (%) / MST: endpoint tumor volume 2000 mm^3
Description: Female C57BL/6 mice were inoculated subcutaneously at the right flank with EL4 cells for tumor development. Five days after tumor inoculation, 48 mice with tumor size ranging from 50-76 mm^3 (average tumor size 65 mm^3) were selected and assigned into 6 groups using stratified randomization with 8 mice per group based upon their tumor volumes. The treatments were started from the day of randomization (defined as D0), Group 1 was treated with Vehicle (Tween 80:Ethanol:Saline—5:5:90 v/v/v), s.c., qd×4, Group 2 was treated with anti-PD-1 10 mg/kg i.p. q4d×4, Group 3 was treated with Compound 1 0.3 mg/kg s.c. q.d.×14, Group 4 was treated with Compound 1 0.3 mg/kg s.c. q.d.×14+anti-PD-1 10 mg/kg i.p. q4d×4, Group 5 was treated with Compound 1 1 mg/kg s.c. q.d.×14, Group 6 was treated with Compound 1 1 mg/kg s.c. q.d.×14+anti-PD-1 10 mg/kg i.p. q4d×4. The tumor sizes were measured three times per week during the treatment. The entire study was terminated on D19 after start of the treatment.
Animal Species: Mus musculus; Strain: […]; Age: 6-8 weeks; Sex: female; Body weight (at treatment start): 17-22 g.
The EL4 tumor cells were maintained in vitro as a monolayer culture in DMEM medium supplemented with 10% heat inactivated horse serum and 100 μg/mL penicillin streptomycin at 37° C. in an atmosphere of 5% CO2 in air. The tumor cells were routinely subcultured twice weekly by trypsin-EDTA treatment. The cells growing to a confluency around 70%-80% were harvested and counted for tumor inoculation. The cultured EL4 were harvested, re-suspended in base medium at a density of […] with viability>90%. Each mouse was inoculated subcutaneously at the right flank with 2×10^5 in 0.1 ml base medium for tumor development.
The treatments were started on day 5 after tumor inoculation when the tumor size reached 50-76 mm^3 (average tumor size 65 mm^3). Each group consisted of 8 tumor bearing mice. The testing article was administrated at the dosing volume indicated to the mice according to the predetermined regimen as shown Table 2C-1. Testing article formulations were prepared according to standard procedures. Details regarding tumor measurements and endpoints, and statistical analysis are provided in EXAMPLE 3.
Tumor sizes were measured three times a week in two dimensions using a caliper, and the volume expressed in mm^3 using the formula: V=0.5 a×b^2 where a and b are the long and short diameters of the tumor, respectively. The tumor sizes were then used for the calculations of both tumor growth inhibition (TGI) and T/C values.
TGI is calculated for each group using the formula: […]
TVTreatment_DayN is the average tumor volume of a treatment group on a given day, TVTreatment_Day0 is the average tumor volume of the treatment group on the first day of treatment, TVVehicle_DayN is the average tumor volume of the vehicle control group on a given day, and TVVehicle_Day0 is the average tumor volume of the vehicle group on the first day of treatment.
The T/C value (in percent) is an indication of antitumor effectiveness, T/C (%)=RTVTreatment/RTVControl×100% (RTVTreatment: the mean RTV of the treatment group; RTVControl: the mean RTV of the vehicle treated group). RTV (relative tumor volume)=TVDayN/TVDay0. TVDayN and TVDay0 is the tumor volume on day N and Day 0 respectively. T/C (%)≤42% is considered as significant antitumor activity and <10% is considered as highly significant antitumor activity by the National Cancer Institute criteria.
Animal survival curve: When an individual animal reached to the termination endpoint (TV>2000 mm^3), the mouse was euthanized. The time from treatment initiation to the termination was deemed as its survival time. Survival curve was plotted by Kaplan-Meier method. Median survival time (MST) was calculated for each group. Increase of life span (ILS) was calculated according to the following formula: […]
ILS (%)>25% is considered as a biologically significant survival benefit. […]

## CC(=O)N[C@@H](Cc1c[nH]c2ccccc12)C(=O)N[C@@H](CCC(=O)C=[N+]=[N-])C(=O)OC(C)C [Compound 1, Isopropyl (S)-2-((S)-2-acetamido-3-(1H-indol-3-yl)propanamido)-6-diazo-5-oxohexanoate]
Compound 1 0.3 mg/kg
  ILS (%): 0%
  MST: 9 days
Compound 1 1 mg/kg
  ILS (%): 35.7%
  MST: 14 days
Cpd. 1 0.3 mg/kg
  RTV at day 7: 21.9 ± 1.51
Cpd. 1 1 mg/kg
  RTV at day 7: 11.2 ± 1.25
Day 0, Cpd. 1 0.3 mg/kg
  Tumor volume (Mean ± SEM): 65 ± 3 mm^3
Day 0, Cpd. 1 1 mg/kg
  Tumor volume (Mean ± SEM): 65 ± 3 mm^3
Day 2, Cpd. 1 0.3 mg/kg
  Tumor volume (Mean ± SEM): 245 ± 6 mm^3
Day 2, Cpd. 1 1 mg/kg
  Tumor volume (Mean ± SEM): 194 ± 15 mm^3
Day 5, Cpd. 1 0.3 mg/kg
  Tumor volume (Mean ± SEM): 763 ± 29 mm^3
Day 5, Cpd. 1 1 mg/kg
  Tumor volume (Mean ± SEM): 613 ± 62 mm^3
Day 7, Cpd. 1 0.3 mg/kg
  T/C: 73.86%
  TGI: 28.88%
  Tumor volume (Mean ± SEM): 1391 ± 41 mm^3
Day 7, Cpd. 1 1 mg/kg
  T/C: 37.76%
  TGI: 64.42%
  Tumor volume (Mean ± SEM): 728 ± 96 mm^3
